Laboratory results: publication PMC8854719, “Phase 1A/1B dose-escalation and -expansion study to evaluate the safety, pharmacokinetics, food effects and antitumor activity of pamiparib in advanced solid tumours” (British Journal of Cancer, 2021)

Assay: Food-effects cohort: PK fasted vs high-fat meal
Assay type: in vivo, human
Description: Patients in the food-effects cohort received a single dose of pamiparib 60 mg (based on the RP2D) on day 1 of cycle 1, followed by a 5-day washout; patients then received another single dose of 60 mg on day 6. Seven patients in sequence 1 (fast followed by fed) received pamiparib after a ≥ 10-h fast on day 1 and after consuming a standard high-fat meal (described in the Supplemental Appendix) 30 min prior to drug administration on day 6. Six patients in sequence 2 (fed followed by fast) received pamiparib after a high-fat meal on day 1 and after a ≥ 10-h fast on Day 6. From day 8 of cycle 1 onward, patients received 60-mg BID treatment.
Pamiparib in plasma was measured using a validated liquid chromatography-tandem–mass spectrometry assay with a lower limit of quantification of 1.0 ng/mL. The collection schedule for blood samples used to assess the PK profile is presented in the Supplemental Appendix. Summary PK parameters, including area under the concentration-time curve from time 0 to 9 h (AUC0-9) or infinity (AUC0-inf), maximal plasma concentration (Cmax) and time to maximal plasma concentration (Tmax), were estimated. The pharmacodynamic (PD) activity of pamiparib was explored through the evaluation of poly(ADP-ribose [PAR]) formation in peripheral blood mononuclear cells (PBMCs) after pamiparib administration. The schedule for blood sample collection (PK and PBMCs) and additional assessment information for PAR levels in PBMCs and pharmacodynamic activity is presented in the Supplemental Appendix. Antitumor activity was assessed by radiographic imaging (computed tomography or magnetic resonance imaging) during screening, within 28 days of first pamiparib dose, every 6 weeks in the first 12 months and every 9 weeks thereafter.
An example of a recommended United States Food and Drug Administration (US FDA) standard high-fat meal comprises two eggs fried in butter, two strips of bacon, two slices of toast with butter, 4 ounces of hash brown potatoes, and 8 ounces of whole milk.
The PK profile of pamiparib was assessed based on blood samples collected at predose and 0.5, 1, 2, 4, 6, 9, 24, and 48 hours postdose on Days 1-3 and then at predose and 0.5, 1, 2, 4, 6, and 9 hours postdose on Day 17 of Cycle 1 in Phase 1A. Sparse PK samples were collected in phase 1B Part A. The food effect on the PK of pamiparib was assessed based on blood samples collected at predose and 0.5, 1, 2, 4, 7, 24, and 48 hours postdose on Day 1 and Day 6 of Cycle 1 in phase 1B Part B.

[1] = single 60 mg dose, high-fat breakfast vs fasted

Compound: C[C@]12CCCN1CC1=NNC(=O)c3cc(F)cc4[nH]c2c1c34 [pamiparib]
- Food effects on pharmacokinetics (in words) (60 mg single dose): no food effects
- Tmax (human, plasma, oral, single 60 mg dose with a high-fat breakfast, read-out: Median Tmax): 7 h
- Reduction of AUC0-inf with food [1]: 12%
- Reduction of Cmax with food [1]: 41%
